Experimental data: patent US8057792B2, “Use of an antibody that blocks TNF-alpha activity for treating a nerve disorder mediated by nucleus pulposus” (Sciaticon AB, priority 1998, dated 2011)

Experiments:
[1] = test system: nucleus pulposus-induced nerve root injury; details: previous publications; cited from earlier work
[2] = test system: pigs with autologous nucleus pulposus placed onto the sacrococcygeal cauda equina; assay: Series-3: nerve root conduction velocity 7 days after nucleus pulposus application, systemic TNF inhibitors; format: in vivo, pig; details: for Effect on nucleus pulposus induced nerve injury: 7 days, systemic treatment; for NCV (m/s +/− SD): pig, 7 days after NP application, infliximab 100 mg i.v. preoperatively, etanercept 12.5 mg s.c. twice
Method: Series-3: Thirteen pigs had autologous nucleus pulposus placed onto their sacrococcygeal cauda equina similar to series-2. Five pigs (body weight 25 kg) received REMICADE® (infliximab) 100 mg i.v. preoperatively, and 8 pigs received ENBREL® (etanercept) 12.5 mg s.c. preoperatively and additionally 12.5 mg s.c. three days after the operation. Seven days after the nucleus pulposus-application the nerve root conduction velocity was determined over the application zone by local electrical stimulation according to series-2. Thirteen pigs had autologous nucleus pulposus placed onto their sacrococcygeal cauda equina similar to series-2. Five pigs (bodyweight 25 kg) received the human/murine monoclonal antibody, REMICADE® (infliximab, […]) 100 mg i.v. preoperatively, and 8 pigs received ENBREL® (etanercept, Centocor B.V., Leiden, the Netherlands) 12.5 mg s.c. preoperatively and additionally 12.5 mg s.c. three days after the operation. Seven days after the nucleus pulposus-application the nerve root conduction velocity was determined over the application zone by local electrical stimulation according to series-2. […] No non-treated animals were included in the series-3 due to the pre-existing knowledge of nerve conduction velocity after seven days of either nucleus pulposus or fat (control) application. The statistical difference between the groups, infliximab, and etanercept, nucleus pulposus without treatment (positive control from previous data) and application of retroperitoneal fat (negative control from previous data) was assessed by using ANOVA and Fisher's PLSD at 5%.

[3] = test system: pigs with autologous nucleus pulposus applied to the sacrococcygeal cauda equina; assay: Example 6: nerve conduction velocity 3 days after application of nucleus pulposus mixed with inhibitors; format: in vivo; details: pig; inhibitor mixed with NP before application (100 µg antibody each, 2 mg doxycycline)
Method: Fourteen pigs, (body weight 25-30 kg) received an intramuscular injection of 20 mg/kg body weight of KETALAR® (ketamine 50 mg/ml, Parke-Davis, Morris Plains, N.J.) and an intravenous injection of 4 mg/kg body weight of HYPNODIL® (methomidate chloride 50 mg/ml, AB Leo, Helsingborg, Sweden) and 0.1 mg/kg body weight of STRESNIL® (azaperon 2 mg/ml, Janssen Pharmaceutica, Beerse, Belgium). Anesthesia was maintained by additional intravenous injections of 2 mg/kg body weight of HYPNODIL® and 0.05 mg/kg body weight of STRESNIL®. The pigs also received an intravenous injection of 0.1 mg/kg of STESOLID NOVUM® (Diazepam, Dumex, Helsingborg) after surgery.
Nucleus pulposus was harvested from the 5th lumbar disc through a retroperitoneal approach. […]
Three days after the application, the pigs were reanaesthetized by an intramuscular injection of 20 mg/kg body weight of KETALAR® and an intravenous injection of 35 mg/kg body weight of PENTOTHAL® (Thiopental sodium, Abbott lab, Chicago, Ill.). […] Local tissue temperature was continuously monitored and maintained at 37.538.0. degree. […]
The person performing the neurophysiologic analyzes was unaware of the experimental protocol for the individual animal, and after finishing the complete study the data were arranged in the three experimental groups and statistical differences between the groups were assessed by Student's t-test. […]

COc1ccc2c(c1)c(CC(=O)O)c(C)n2C(=O)c1ccc(Cl)cc1 [indomethacin]
Block of nucleus pulposus-related effects [1]: slightly less efficiently

etanercept [ENBREL ®]
Effect on nucleus pulposus induced nerve injury [2]: blocked the nucleus pulposus induced nerve injury efficiently
NCV (m/s +/− SD) [2]: 78 +/− 14 m/s

infliximab [REMICADE ®]
Effect on nucleus pulposus induced nerve injury [2]: blocked the nucleus pulposus induced nerve injury efficiently
NCV (m/s +/− SD) [2]: 79 +/− 15 m/s

cyclosporin A
Block of nucleus pulposus-related effects [1]: blocked efficiently

C[C@H]1c2cccc(O)c2C(=O)C2=C(O)[C@]3(O)C(=O)C(C(N)=O)=C(O)[C@@H](N(C)C)[C@@H]3[C@@H](O)[C@@H]21 [Doxycycline, doxycycline]
Nerve conduction velocity (m/s) 3 days after application [3]: 53 +/− 22 m/s

CCN(CC)CC(=O)Nc1c(C)cccc1C [lidocaine]
Block of nucleus pulposus-related effects [1]: slightly less efficiently
